Experimental data as given in publication PMC11995216, “End-to-End Backbone Cyclization Enhances Passive Permeability of bRo5 Oligomeric Depsipeptides with Nonlinear Size Dependence” (ACS Medicinal Chemistry Letters, 2025).
Several values for one entry are separate records, joined by “and”; a condition that tells them apart may be missing. Equal values may be shown once. Read-outs that look alike come from different tables or passages of the source.

Experiments:
PAMPA [1] = settings: UV detection
PAMPA [2] = settings: UV detection, initial concentration 500 uM
[3] = PAMPA, 500 uM
[4] = initial concentration 500 uM, standard curve, UV detection
[5] = UV detection
in vitro = settings: PAMPA, Papp
[6] = calculated using Supplement Equation 1, UV detection
[7] = Papp (x 10^-6 cm/s) / experiment 1
[8] = Papp (x 10^-6 cm/s) / experiment 2
[9] = Papp (x 10^-6 cm/s) / experiment 3
[10] = Papp (x 10^-6 cm/s) / experiment 4
[11] = Papp (x 10^-6 cm/s) / experiment 5
[12] = Papp (x 10^-6 cm/s) / experiment 6
[13] = Papp (x 10^-6 cm/s) / experiment 7
[14] = Papp (x 10^-6 cm/s) / experiment 8
[15] = Papp (x 10^-6 cm/s) / experiment 9
[16] = Papp (x 10^-6 cm/s) / experiment 10
[17] = Acceptor Concentration (uM) / experiment 1
[18] = Acceptor Concentration (uM) / experiment 2
[19] = Acceptor Concentration (uM) / experiment 3
[20] = Acceptor Concentration (uM) / experiment 4
[21] = Acceptor Concentration (uM) / experiment 5
[22] = Acceptor Concentration (uM) / experiment 6
[23] = Acceptor Concentration (uM) / experiment 7
[24] = Acceptor Concentration (uM) / experiment 8
[25] = Acceptor Concentration (uM) / experiment 9
[26] = Acceptor Concentration (uM) / experiment 10

Compound `CCCCC[C@H](OC(=O)[C@@H](C)N(C)C(=O)[C@H](CCCCC)OC(=O)[C@@H](C)N(C)C(=O)[C@H](CCCCC)OC(=O)[C@@H](C)N(C)C(=O)OC(C)(C)C)C(=O)OCc1ccccc1` [Compound L1.3] has a Papp (PAMPA [1]; [7]) of 3.86 ×10⁻⁶ cm/s, a Papp (PAMPA [1]; [8]) of 3.52 ×10⁻⁶ cm/s and a Papp (PAMPA [1]; [9]) of 3.52 ×10⁻⁶ cm/s. The Papp (PAMPA [1]; [10]) was 3.49 ×10⁻⁶ cm/s, the Papp (PAMPA [1]; [11]) was 3.18 ×10⁻⁶ cm/s and the Papp (PAMPA [1]; [12]) was 3.34 ×10⁻⁶ cm/s. The Papp (PAMPA [1]; [13]) was 3.62 ×10⁻⁶ cm/s, the Papp (PAMPA [1]; [14]) was 3.46 ×10⁻⁶ cm/s and the Papp (PAMPA [1]; [15]) was 3.83 ×10⁻⁶ cm/s. For the same compound, the Papp (PAMPA [1]; [16]) was 3.57 ×10⁻⁶ cm/s, the Acceptor Concentration (PAMPA [2]; [17]) was 84.1 µM and the Acceptor Concentration (PAMPA [2]; [18]) was 80.7 µM. For the same compound, the Acceptor Concentration (PAMPA [2]; [19]) was 74.5 µM, the Acceptor Concentration (PAMPA [2]; [20]) was 72.5 µM and the Acceptor Concentration (PAMPA [2]; [21]) was 68.1 µM. The Acceptor Concentration (PAMPA [2]; [22]) was 71.8 µM, the Acceptor Concentration (PAMPA [2]; [23]) was 84 µM and the Acceptor Concentration (PAMPA [2]; [24]) was 79 µM. For the same compound, the Acceptor Concentration (PAMPA [2]; [25]) was 81.4 µM, the Acceptor Concentration (PAMPA [2]; [26]) was 75.6 µM and the LogPapp [3] was -5.45 ± 0.02. For the same compound, the Δ % diffusion [3] was “↑3%”, the donor concentration after incubation ([4]; Well 1 / [donor], Well 1) was 358 µM and the donor concentration after incubation ([4]; Well 2 / [donor], Well 2) was 382 µM and 379 µM. For the same compound, the donor concentration after incubation ([4]; Well 3 / [donor], Well 3) was 378 µM and 351 µM, the donor concentration after incubation ([4]; Well 4 / [donor], Well 4) was 350 µM and 346 µM and the donor concentration after incubation ([4]; Well 5 / [donor], Well 5) was 351 µM and 360 µM. For the same compound, the % recovery ([5]; Well 1 / %R, Well 1) was 86% and 89%, the % recovery ([5]; Well 2 / %R, Well 2) was 93% and 92% and the % recovery ([5]; Well 3 / %R, Well 3) was 91% and 85%. The % recovery ([5]; Well 4 / %R, Well 4) was 86% and 84%, the % recovery ([5]; Well 5 / %R, Well 5) was 85% and 86% and the Papp at 500 uM (in vitro) was 3.54 ± 0.2 ×10⁻⁶ cm/s. The %T ([6]; Well 1 / %T, Well 1) was 0.44% and 0.49%, the %T ([6]; Well 2 / %T, Well 2) was 0.47% and 0.46% and the %T ([6]; Well 3 / %T, Well 3) was 0.46%. The %T ([6]; Well 4 / %T, Well 4) was 0.49% and 0.46% and the %T ([6]; Well 5 / %T, Well 5) was 0.47% and 0.43%.
Work on `CCCCC[C@H](OC(=O)[C@@H](C)N(C)C(=O)OC(C)(C)C)C(=O)OCc1ccccc1` [Compound L1.1] yielded a Papp (PAMPA [1]; [7]) of 4.67 ×10⁻⁶ cm/s, a Papp (PAMPA [1]; [8]) of 4.06 ×10⁻⁶ cm/s and a Papp (PAMPA [1]; [9]) of 3.27 ×10⁻⁶ cm/s. It also gave a Papp (PAMPA [1]; [10]) of 4.23 ×10⁻⁶ cm/s, a Papp (PAMPA [1]; [11]) of 3.87 ×10⁻⁶ cm/s and a Papp (PAMPA [1]; [12]) of 4.51 ×10⁻⁶ cm/s. The Papp (PAMPA [1]; [13]) was 4.1 ×10⁻⁶ cm/s, the Papp (PAMPA [1]; [14]) was 4.51 ×10⁻⁶ cm/s and the Papp (PAMPA [1]; [15]) was 5.45 ×10⁻⁶ cm/s. It also gave a Papp (PAMPA [1]; [16]) of 4.19 ×10⁻⁶ cm/s, an Acceptor Concentration (PAMPA [2]; [17]) of 97.9 µM and an Acceptor Concentration (PAMPA [2]; [18]) of 95.4 µM. For the same compound, the Acceptor Concentration (PAMPA [2]; [19]) was 79.7 µM, the Acceptor Concentration (PAMPA [2]; [20]) was 94.3 µM and the Acceptor Concentration (PAMPA [2]; [21]) was 84.7 µM. The Acceptor Concentration (PAMPA [2]; [22]) was 107 µM, the Acceptor Concentration (PAMPA [2]; [23]) was 95.8 µM and the Acceptor Concentration (PAMPA [2]; [24]) was 92.9 µM. The Acceptor Concentration (PAMPA [2]; [25]) was 107 µM, the Acceptor Concentration (PAMPA [2]; [26]) was 97.4 µM and the “Acceptor Concentration, Ave” value [3] was 95.2 µM. For the same compound, the Δ % diffusion [3] was “↑22%”, the donor concentration after incubation ([4]; Well 1 / [donor], Well 1) was 339 µM and 383 µM and the donor concentration after incubation ([4]; Well 2 / [donor], Well 2) was 384 µM and 381 µM. For the same compound, the donor concentration after incubation ([4]; Well 3 / [donor], Well 3) was 406 µM and 335 µM, the donor concentration after incubation ([4]; Well 4 / [donor], Well 4) was 363 µM and 315 µM and the donor concentration after incubation ([4]; Well 5 / [donor], Well 5) was 360 µM and 379 µM. For the same compound, the % recovery ([5]; Well 1 / %R, Well 1) was 87% and 98%, the % recovery ([5]; Well 2 / %R, Well 2) was 96% and 95% and the % recovery ([5]; Well 3 / %R, Well 3) was 97% and 86%. The % recovery ([5]; Well 4 / %R, Well 4) was 91% and 84%, the % recovery ([5]; Well 5 / %R, Well 5) was 89% and 95% and the Papp at 500 uM (in vitro) was 4.3 ± 0.6 ×10⁻⁶ cm/s. The %T ([6]; Well 1 / %T, Well 1) was 0.56% and 0.55%, the %T ([6]; Well 2 / %T, Well 2) was 0.51% and the %T ([6]; Well 3 / %T, Well 3) was 0.44% and 0.55%. The %T ([6]; Well 4 / %T, Well 4) was 0.52% and 0.62% and the %T ([6]; Well 5 / %T, Well 5) was 0.49% and 0.52%.
